Here are results for two compounds from patent US5863913A, “Aromatic compound and pharmaceutical composition” (Kureha Chemical Industry Co., Ltd., priority 1996, dated 1999).

Data set [1] has as its system kidney disease model rats. The data set is described as follows: Action to lower blood pressure in kidney disease model rats (tail cuff). The format is in vivo, Sprague-Dawley female rats. To be noted: systolic, average of 8 rats, 20 mg/kg with drinking water, two days after administration; control 210. Here is the method: (§1) The compounds of the present invention and the reference substance were administered with drinking water to kidney disease model rats, and the action of lowering the blood pressure was observed. The kidney disease model rats were prepared by a ligature of branches of renal artery in accordance with a conventional method. Namely, the left hilum renalis of Sprague-Dawley female rats was exposed under anesthesia, and one of four secondary branches of the renal artery was left unligated, while the remaining three branches were ligated, respectively. After a week, the hilum renalis (artery, vein, and ureter) of the right kidney were further ligated to thereby prepare rats whose renal function was lowered to approximately 1/8 of the normal function. Each group consisted of eight rats. The drugs to be tested (20 mg/kg) were administered to each administering group, and only water was administered to a control group. Two days after the administration, the systolic blood pressure was measured by the tail cuff method using a blood pressure measuring apparatus (UR5000; Ueda).

Data set [2] can be described thus: Oral absorption (amount of compound in rat serum by HPLC, area under curve). The following applies: single dosage 160 mg/kg in water, 0.5 to 24 hours, average of 3 rats. The format is in vivo, Sprague-Dawley female rats. Here is the method: Twelve-week-old Sprague-Dawley female rats (3 rats per group) were bred for acclimation for a week. Then, the compounds of the present invention and a reference substrate were dissolved in water, and orally administered to the rats in a single dosage (160 mg/kg). After 0.5 hour, 1 hour, 2 hours, 4 hours, 6 hours, 8 hours, and 24 hours, the amounts of each compound (ng) per 1 ml of serum were measured using HPLC. Curves were obtained from the relation between an elapsed time after administration and the amount of the compound in serum at each elapsed time, respectively, and an average of the areas under the curves was calculated.
As a reference substance, Compound No. 184 disclosed in Japanese Unexamined Patent Publication (Kokai) No. 8-48651 was used. Compound No. 184 corresponds to the compound of the formula (I) wherein R^1 =nBu, A=N, Z=C, R^2 =CO, R^3 =NC4 H8 O, R^4 =H, R^5 =Me, and R^6 =Me.

Data set [3] relates to ICR female mice. The data set is described as follows: Acute toxicity, single oral dose in mice. To be noted: mouse, in vivo. Here is the method:
The aromatic compounds of the formula (I) according to the present invention were orally administered to mice at the dose of 500 mg/kg, but no fatalities were observed over a period of one week.
Five-week-old ICR female mice (5 mice per group) were bred for acclimation for a week. Then, the compounds of the present invention were dissolved in water, and orally administered to the mice in a single dosage (500 mg/kg).

Data set [4] addresses T1, angiotensin II receptor subtype 1 (AT1) (Oryctolagus cuniculus, UniProt P34976).
T1 construct: receptor : from adrenal glands in rabbits; from tissue; host or cells: rabbit adrenal glands
T1 sequence (P34976 1-359): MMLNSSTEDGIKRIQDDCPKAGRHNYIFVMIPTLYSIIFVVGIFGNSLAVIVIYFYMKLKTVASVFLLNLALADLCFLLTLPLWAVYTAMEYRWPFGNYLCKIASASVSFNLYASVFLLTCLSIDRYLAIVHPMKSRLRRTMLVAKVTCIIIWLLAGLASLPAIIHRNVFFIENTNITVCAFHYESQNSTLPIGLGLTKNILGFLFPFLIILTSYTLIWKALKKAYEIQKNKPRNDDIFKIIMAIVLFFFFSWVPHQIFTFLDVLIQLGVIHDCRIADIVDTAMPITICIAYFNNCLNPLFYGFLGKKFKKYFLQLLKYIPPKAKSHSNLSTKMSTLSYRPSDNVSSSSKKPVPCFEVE
Kind of data set: Binding to receptors: angiotensin II receptor subtype 1 (AT1). Set-up: species or system rabbits (adrenal glands). The following applies: rabbit adrenal glands, tracer 3H-angiotensin II. Here is the method:
In this Example, the affinity to the angiotensin II receptor subtype 1 or subtype 2 was evaluated by a binding assay in accordance with the method described in Biochem. Pharmacol., 33, 4057-4062 (1984).
Specifically, the measurement of the total binding in the presence of each drug was performed as follows:
A mixture (final volume=0.25 ml) of a drug in a given concentration (the drug was dissolved in DMSO, and diluted to a double volume with a buffer attached to a drug discovery system to prepare a sample for the assay; 0.025 ml), a tracer (0.025 ml), and receptors (0.2 ml) was incubated [in the case of the angiotensin II receptor subtype 1 (AT1), at room temperature for 3 hours, and in the case of the subtype 2 (AT2), at 37° C. for 1 hour]. Then, the reaction mixture was filtered with suction (GF/C filter was used in AT1, and GF/B filter was used in AT2). The filter papers after filtration with suction (the tracer bound to the receptors) were counted by a γ-well counter (ARC-500, Aloka). The non-specific bindings were measured by repeating the above method, except that a large excess amount of a displacer was added. The specific binding of the drug in the given concentration was calculated by subtracting the non-specific binding from the total binding, respectively.
receptor : from adrenal glands in rabbits
tracer : ^3 Hangiotensin II

Data set [5] deals with kidney disease model rats. Kind of data set: Survival time of kidney diseased animals. The format is in vivo, Sprague-Dawley female rats. To be noted: 20 mg/kg/day with drinking water, observation period eight weeks (upper limit); control 5.0. The method, then: as §1
The kidney disease model rats were prepared as in Example 54. Twenty-two groups (8 rats per group) were prepared in a manner such that there was no major difference between the groups in the serum creatinine value and the blood urea nitrogen value indicating renal function. The rats in each group were allowed to freely take up food. […] To the rats in the control group, only water was administered every day. If kidney diseases are aggravated, the rat will die of uremia. Thus, the survival time was observed as a comprehensive indication of the improvement of the effect on the kidney diseases. The observation period was eight weeks. Thus if all rats survived, the average survival time is eight weeks, and is an upper limit.

Data set [6] concerns kidney disease model rats. The data set is described as follows: Renal function indicatory value in kidney disease model rats. The following applies: 20 mg/kg/day with drinking water, six weeks. The data set is classed as in vivo, Sprague-Dawley female rats. Here is the method:
as §1, with “The” for “The compounds of the present invention and the reference substance were administered with drinking water to kidney disease model rats, and the action of lowering the blood pressure was observed. The”
The rats in each group were allowed to freely take up food. […] To the rats in the control group, only water was administered every day. After six weeks, 0.2 ml of blood was collected from the carotid artery of the rats under anesthesia, and centrifuged to obtain serum. Using 25 μl of the serum, the serum creatinine (Scr) was measured by a creatinine analytical instrument (Beckman). Using 10 μl of the serum, the blood urea nitrogen (BUN) was measured by a BUN analytical instrument (Beckman). The creatinine clearance was evaluated as follows:
After the serum creatinine measurement, rats were placed in urinary metabolic cages for 24 hours to collect urine. A urinary creatine concentration (Ucr) was measured by a creatinine analytical instrument, and a total volume of urination (Uvol) was also measured. The creatinine clearance (CCr) was calculated by the following formula: [formula]

Take `CCCCC(=O)N(Cc1ccc(C(=O)O)cc1)c1cc(C(=O)N2CCN(CCC)CC2)ccc1N(C)C` [Compound No. 11, 4-dimethylamino-3-N-[[(4-carboxyphenyl)methyl]valeramido]benzoic acid 4'-n-propylpiperazide]: in data set [1], the “Blood Pressure” value turned out to be 204 mmHg. For the same compound, the AUC (in general, concentration integrated over time) at 24 h in data set [2] was found to be 76000 ng·h/mL. Also, the “Number of deaths/number of survivals” value in data set [3] is listed as 0/5. For the same compound, the inhibition – broadly, the percentage by which the read-out fell short of the control – at 100 µM in data set [4] was determined as 0%. Also, the Average survival time in data set [5] is 7.3 weeks. For the same compound, the Creatinine clearance in data set [6] (24 hours urine, control 0.22) came to 0.42 mL/min. In data set [6] (serum, control 2.0), this compound came in with a Creatinine of 1.2 mg/dL. Besides, the Blood urea nitrogen in data set [6] (serum, control 100) is 62 mg/dL.
In the case of `CCCCC(=O)N(Cc1ccc(C(=O)O)cc1)c1cc(C(=O)N2CCOCC2)ccc1N(C)C` [reference substance, 3-N-[[(4-carboxyphenyl)methyl]valeramido]-4-dimethylaminobenzoic acid morpholide, reference compound], in data set [2], the AUC at 24 h was determined as 622 ng·h/mL.
